The values below come from US8367830B2, “Methods for the identification of phosphatidylinositol kinase interacting molecules and for the purification of phosphatidylinositol kinase proteins” (Cellzome AG, priority 2009, dated 2013).

Common to all, as to assay: Kinobeads competition binding, immobilized CZC31207, HeLa/placenta lysate mix
Common to all, as to settings: 10 μM free compound; mixed HeLa and placenta cell lysates

One assay concerns the target T1, AurA (Homo sapiens, UniProt O14965).
T1 construct: endogenous in cells; host or cells: mixed lysate of HeLa cells and placenta
The method, then:
(§1) To the first aliquot of cell lysate 10 μM of the free compound (CZC31207) was added and allowed to bind to proteins in the lysate. Then the affinity matrix with the immobilized compound (Example 1) was added to capture proteins that were not interacting with the previously added free compound. Beads were separated from the lysate and bead bound proteins were eluted in SDS sample buffer and subsequently separated by SDS-Polyacrylamide gel electrophoresis (FIG. 4). Suitable gel bands were cut out and subjected to in-gel proteolytic digestion with trypsin. The second lysate aliquot was processed identically, however no free compound was added (DMSO solvent control). Peptides originating from samples 1 and 2 were labeled with iTRAQ reagents (iTRAQ 115 and iTRAQ 117) and the combined samples were analyzed with a nano-flow liquid chromatography system coupled online to a tandem mass spectrometer (LC-MS/MS) experiment followed by iTRAQ reporter ion quantification in the MS/MS spectra (Ross et al., 2004. Mol. Cell. Proteomics 3(12):1154-1169). Further experimental protocols can be found in WO2006/134056 and a previous publication (Bantscheff et al., 2007. Nature Biotechnology 25, 1035-1044).
(§2) Cells were homogenized in a Potter S homogenizer in lysis buffer: 50 mM Tris-HCl, 0.8% NP40, 5% glycerol, 150 mM NaCl, 1.5 mM MgCl2, 25 mM NaF, 1 mM sodium vanadate, 1 mM DTT, pH 7.5. One complete EDTA-free tablet (protease inhibitor cocktail, Roche Diagnostics, 1 873 580) per 25 ml buffer was added. The material was dounced 20 times using a mechanized POTTER S, transferred to 50 ml falcon tubes, incubated for 30 minutes rotating at 4° C. and spun down for 10 minutes at 20,000×g at 4° C. (10,000 rpm in Sorvall SLA600, precooled). The supernatant was transferred to an ultracentrifuge (UZ)-polycarbonate tube (Beckmann, 355654) and spun for 1 hour at 145.000×g at 4° C. (40.000 rpm in Ti50.2, precooled). The supernatant was transferred again to a fresh 50 ml falcon tube, the protein concentration was determined by a Bradford assay (BioRad) and samples containing 50 mg of protein per aliquot were prepared. The samples were immediately used for experiments or frozen in liquid nitrogen and stored frozen at −80° C.
(§3) Sepharose-beads with the immobilized compound (100 μl beads per pull-down experiment) were equilibrated in lysis buffer and incubated with a cell lysate sample containing 50 mg of protein on an end-over-end shaker (Roto Shake Genie, Scientific Industries Inc.) for 2 hours at 4° C. Beads were collected, transferred to Mobicol-columns (MoBiTech 10055) and washed with 10 ml lysis buffer containing 0.4% NP40 detergent, followed by 5 ml lysis buffer containing 0.2% detergent. To elute bound proteins, 60 μl 2×SDS sample buffer was added to the column. The column was incubated for 30 minutes at 50° C. and the eluate was transferred to a siliconized microfuge tube by centrifugation. Proteins were then alkylated with 108 mM iodoacetamid. Proteins were then separated by SDS-Polyacrylamide electrophoresis (SDS-PAGE).
(§4) Gel-separated proteins were digested in-gel essentially following a previously described procedure (Shevchenko et al., 1996, Anal. Chem. 68:850-858). Briefly, gel-separated proteins were excised from the gel using a clean scalpel, destained twice using 100 μl 5 mM triethylammonium bicarbonate buffer (TEAB; Sigma T7408) and 40% ethanol in water and dehydrated with absolute ethanol. Proteins were subsequently digested in-gel with porcine trypsin (Promega) at a protease concentration of 10 ng/μl in 5 mM TEAB. Digestion was allowed to proceed for 4 hours at 37° C. and the reaction was subsequently stopped using 5 μl 5% formic acid.
(§5) Gel plugs were extracted twice with 20 μl 1% formic acid and three times with increasing concentrations of acetonitrile. Extracts were subsequently pooled with acidified digest supernatants and dried in a vacuum centrifuge. […]

A further assay addresses T2, Erk2 (Homo sapiens, UniProt P28482).
T2 construct: endogenous in cells; host or cells: mix of HeLa cell lysate and placenta lysate
The method, then:
as §1, §2, §3, §4, §5

The next assay concerns the target T3, MAP3K6 (Homo sapiens, UniProt O95382).
T3 construct: endogenous in cells; host or cells: mixed lysate of HeLa cells and placenta
The method, then: as §1, §2, §3, §4, §5

In a further assay the target is T4, MLKL (Homo sapiens, UniProt Q8NB16).
T4 construct: endogenous in cells; host or cells: mix of HeLa cell lysate and placenta lysate
The method, then: as §1, §2, §3, §4, §5

Another assay deals with T5, PIK3Ca (Homo sapiens, UniProt P42336).
T5 construct: endogenous in cells; host or cells: mix of HeLa cell lysate and placenta lysate
The method, then:
as §1, §2, §3, §4, §5

The next assay addresses T6, TNK1 (Homo sapiens, UniProt Q13470).
T6 construct: endogenous in cells; host or cells: mix of HeLa cell lysate and placenta lysate
The method, then:
as §1, §2, §3, §4, §5

T3 sequence (O95382 whole entry): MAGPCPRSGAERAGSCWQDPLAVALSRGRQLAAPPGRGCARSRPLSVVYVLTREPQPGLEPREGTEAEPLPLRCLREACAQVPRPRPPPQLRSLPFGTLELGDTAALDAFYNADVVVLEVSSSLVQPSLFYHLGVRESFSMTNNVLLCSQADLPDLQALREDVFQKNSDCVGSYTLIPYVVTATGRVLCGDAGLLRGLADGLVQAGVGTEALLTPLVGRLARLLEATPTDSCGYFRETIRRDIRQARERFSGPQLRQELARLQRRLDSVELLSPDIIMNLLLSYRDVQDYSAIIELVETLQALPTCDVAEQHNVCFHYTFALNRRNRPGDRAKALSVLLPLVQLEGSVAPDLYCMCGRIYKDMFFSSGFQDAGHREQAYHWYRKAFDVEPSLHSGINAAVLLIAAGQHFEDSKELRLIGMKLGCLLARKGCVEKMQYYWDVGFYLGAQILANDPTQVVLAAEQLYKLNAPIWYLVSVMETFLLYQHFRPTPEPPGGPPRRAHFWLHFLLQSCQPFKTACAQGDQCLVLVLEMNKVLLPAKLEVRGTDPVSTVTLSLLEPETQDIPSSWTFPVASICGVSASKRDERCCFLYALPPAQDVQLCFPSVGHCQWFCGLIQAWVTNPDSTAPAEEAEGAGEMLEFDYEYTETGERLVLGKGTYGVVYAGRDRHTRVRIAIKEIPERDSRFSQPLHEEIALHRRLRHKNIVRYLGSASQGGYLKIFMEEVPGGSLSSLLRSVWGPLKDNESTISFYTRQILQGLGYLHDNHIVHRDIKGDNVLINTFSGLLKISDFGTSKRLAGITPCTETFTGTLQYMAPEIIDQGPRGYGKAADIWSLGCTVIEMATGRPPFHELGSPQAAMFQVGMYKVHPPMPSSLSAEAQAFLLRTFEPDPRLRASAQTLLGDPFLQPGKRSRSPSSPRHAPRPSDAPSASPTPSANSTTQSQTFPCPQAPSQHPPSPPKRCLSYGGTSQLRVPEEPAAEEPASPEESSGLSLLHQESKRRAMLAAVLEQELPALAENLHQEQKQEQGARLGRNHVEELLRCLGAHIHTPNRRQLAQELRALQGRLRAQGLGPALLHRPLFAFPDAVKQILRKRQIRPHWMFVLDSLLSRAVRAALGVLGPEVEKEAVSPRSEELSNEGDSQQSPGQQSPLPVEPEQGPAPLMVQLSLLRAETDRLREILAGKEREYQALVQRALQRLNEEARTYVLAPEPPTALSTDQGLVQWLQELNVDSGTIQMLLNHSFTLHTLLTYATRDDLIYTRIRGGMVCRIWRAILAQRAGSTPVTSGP
T4 sequence (Q8NB16 whole entry): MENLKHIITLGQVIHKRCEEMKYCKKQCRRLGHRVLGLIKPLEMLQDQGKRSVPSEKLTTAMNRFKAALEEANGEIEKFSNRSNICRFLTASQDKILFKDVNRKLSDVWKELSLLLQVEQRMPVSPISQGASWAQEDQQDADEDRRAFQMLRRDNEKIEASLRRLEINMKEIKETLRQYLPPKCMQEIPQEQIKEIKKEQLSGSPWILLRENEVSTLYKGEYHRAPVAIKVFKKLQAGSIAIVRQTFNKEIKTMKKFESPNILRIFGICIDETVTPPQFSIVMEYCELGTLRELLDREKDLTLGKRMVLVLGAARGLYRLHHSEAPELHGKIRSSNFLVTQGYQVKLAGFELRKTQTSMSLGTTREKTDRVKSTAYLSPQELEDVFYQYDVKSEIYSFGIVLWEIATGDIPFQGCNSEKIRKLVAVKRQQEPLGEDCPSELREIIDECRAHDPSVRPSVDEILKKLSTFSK
T5 sequence (P42336 whole entry): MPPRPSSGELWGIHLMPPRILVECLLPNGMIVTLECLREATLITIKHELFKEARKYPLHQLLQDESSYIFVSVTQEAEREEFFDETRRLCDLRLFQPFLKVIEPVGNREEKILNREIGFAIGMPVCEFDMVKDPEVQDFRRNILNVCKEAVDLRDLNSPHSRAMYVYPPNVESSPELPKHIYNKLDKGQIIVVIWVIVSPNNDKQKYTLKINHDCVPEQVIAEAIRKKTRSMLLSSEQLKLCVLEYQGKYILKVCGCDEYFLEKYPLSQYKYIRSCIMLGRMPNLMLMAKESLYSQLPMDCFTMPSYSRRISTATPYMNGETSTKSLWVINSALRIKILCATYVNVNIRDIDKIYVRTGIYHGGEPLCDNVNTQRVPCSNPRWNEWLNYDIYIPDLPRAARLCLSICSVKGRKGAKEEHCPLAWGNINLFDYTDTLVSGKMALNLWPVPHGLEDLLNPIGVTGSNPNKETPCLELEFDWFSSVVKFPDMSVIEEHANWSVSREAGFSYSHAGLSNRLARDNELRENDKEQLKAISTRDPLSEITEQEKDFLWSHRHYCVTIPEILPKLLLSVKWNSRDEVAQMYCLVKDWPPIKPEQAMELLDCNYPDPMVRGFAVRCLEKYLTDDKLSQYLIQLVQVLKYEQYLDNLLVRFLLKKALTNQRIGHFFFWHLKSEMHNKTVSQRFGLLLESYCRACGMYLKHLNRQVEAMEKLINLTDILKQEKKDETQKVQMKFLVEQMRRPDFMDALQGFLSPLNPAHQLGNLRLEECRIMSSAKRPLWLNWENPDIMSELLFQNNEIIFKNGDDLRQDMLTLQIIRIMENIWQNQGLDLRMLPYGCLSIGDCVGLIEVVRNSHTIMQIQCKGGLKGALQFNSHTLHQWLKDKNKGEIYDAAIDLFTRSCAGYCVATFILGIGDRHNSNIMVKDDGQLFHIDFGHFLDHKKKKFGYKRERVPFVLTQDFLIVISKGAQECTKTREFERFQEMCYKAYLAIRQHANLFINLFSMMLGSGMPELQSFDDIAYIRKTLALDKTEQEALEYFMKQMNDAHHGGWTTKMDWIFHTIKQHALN
T5 sequence (P27986 whole entry partner): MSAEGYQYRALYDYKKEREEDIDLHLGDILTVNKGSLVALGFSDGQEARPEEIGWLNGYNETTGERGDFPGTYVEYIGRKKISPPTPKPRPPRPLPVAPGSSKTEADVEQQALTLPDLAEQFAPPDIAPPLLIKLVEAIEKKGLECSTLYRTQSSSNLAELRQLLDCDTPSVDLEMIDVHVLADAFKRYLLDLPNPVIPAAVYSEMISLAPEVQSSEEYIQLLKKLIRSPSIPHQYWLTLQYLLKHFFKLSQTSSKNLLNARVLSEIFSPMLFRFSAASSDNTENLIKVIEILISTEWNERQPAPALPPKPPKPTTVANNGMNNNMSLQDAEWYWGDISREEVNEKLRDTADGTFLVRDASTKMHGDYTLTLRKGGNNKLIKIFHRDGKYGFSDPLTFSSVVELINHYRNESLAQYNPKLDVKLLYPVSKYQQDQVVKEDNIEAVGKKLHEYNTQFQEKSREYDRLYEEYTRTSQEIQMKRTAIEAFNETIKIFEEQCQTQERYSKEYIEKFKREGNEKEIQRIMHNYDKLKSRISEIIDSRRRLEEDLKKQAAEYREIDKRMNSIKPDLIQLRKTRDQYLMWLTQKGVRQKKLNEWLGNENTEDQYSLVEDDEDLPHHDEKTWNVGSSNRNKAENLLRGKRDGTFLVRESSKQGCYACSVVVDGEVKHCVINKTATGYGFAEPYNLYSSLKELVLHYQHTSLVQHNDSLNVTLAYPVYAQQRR
T2 sequence (P28482 whole entry): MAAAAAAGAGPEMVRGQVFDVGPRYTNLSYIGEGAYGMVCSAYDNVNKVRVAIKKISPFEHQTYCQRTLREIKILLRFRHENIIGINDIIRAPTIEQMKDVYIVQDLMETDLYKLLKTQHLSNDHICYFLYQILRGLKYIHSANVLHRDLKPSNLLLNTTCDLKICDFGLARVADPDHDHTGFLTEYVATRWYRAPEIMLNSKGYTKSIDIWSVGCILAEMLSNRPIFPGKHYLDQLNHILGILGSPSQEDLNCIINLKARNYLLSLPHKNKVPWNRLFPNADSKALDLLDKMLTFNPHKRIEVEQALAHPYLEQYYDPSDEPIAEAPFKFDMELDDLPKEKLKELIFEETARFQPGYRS
T1 sequence (O14965 whole entry): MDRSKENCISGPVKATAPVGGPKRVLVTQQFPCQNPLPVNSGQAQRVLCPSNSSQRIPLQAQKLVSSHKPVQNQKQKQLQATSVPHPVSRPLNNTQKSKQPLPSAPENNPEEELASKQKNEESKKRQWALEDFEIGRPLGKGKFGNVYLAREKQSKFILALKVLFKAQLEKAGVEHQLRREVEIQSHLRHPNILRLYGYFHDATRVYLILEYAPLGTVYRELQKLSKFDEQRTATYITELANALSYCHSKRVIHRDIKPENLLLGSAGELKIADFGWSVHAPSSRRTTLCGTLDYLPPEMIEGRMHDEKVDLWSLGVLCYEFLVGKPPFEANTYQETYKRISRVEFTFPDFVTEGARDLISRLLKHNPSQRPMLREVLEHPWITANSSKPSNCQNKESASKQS
T6 sequence (Q13470 whole entry): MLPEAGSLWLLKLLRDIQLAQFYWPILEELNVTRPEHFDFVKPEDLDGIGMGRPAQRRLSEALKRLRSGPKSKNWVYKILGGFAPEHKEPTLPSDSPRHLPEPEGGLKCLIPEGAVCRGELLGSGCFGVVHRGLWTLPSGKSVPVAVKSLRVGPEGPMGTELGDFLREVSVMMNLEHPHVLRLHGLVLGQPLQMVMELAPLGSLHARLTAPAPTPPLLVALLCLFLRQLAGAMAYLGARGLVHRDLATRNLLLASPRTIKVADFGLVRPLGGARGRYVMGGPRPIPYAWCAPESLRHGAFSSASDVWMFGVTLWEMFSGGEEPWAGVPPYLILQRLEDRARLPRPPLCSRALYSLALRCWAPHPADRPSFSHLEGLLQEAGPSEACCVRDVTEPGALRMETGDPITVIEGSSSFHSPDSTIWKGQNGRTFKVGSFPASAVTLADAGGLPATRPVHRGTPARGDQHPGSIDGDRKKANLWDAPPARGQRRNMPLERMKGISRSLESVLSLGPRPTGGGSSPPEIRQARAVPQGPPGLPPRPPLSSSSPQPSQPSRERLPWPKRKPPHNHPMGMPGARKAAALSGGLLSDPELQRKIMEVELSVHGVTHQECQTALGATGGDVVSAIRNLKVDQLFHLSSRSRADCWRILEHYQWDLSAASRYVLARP

Regarding `CC(C)NS(=O)(=O)c1cncc(-c2ccc3nc(NC(=O)NCCN)nn3c2)c1` [CZC31207, 5-(2-(3-(2-aminoethyl)ureido)-[1,2,4]triazolo[1,5-a]pyridin-6-yl)-N-isopropylpyridine-3-sulfonamide], the “Competition % AurA” value at AurA is given as 12.8%. In addition, the “Competition % Erk2” value at Erk2 is −2.9%. Moreover, the “Competition % MAP3K6” value at MAP3K6 was found to be 10.3%. The “Competition % MLKL” value at MLKL stood at 34.2%. Also, the “Competition % PIK3Ca” value at PIK3Ca is 68.6%. At TNK1, the “Competition % TNK1” value is −1.9%.
